Assay results: US8163793B2, “Proline derivatives” (Hoffman-La Roche Inc., priority 2009, dated 2012)
Where a name gives a salt, the structure may show the parent alone.

Assays:
Cathepsin S = Cathepsin S (UniProt P25774); test: Cathepsin enzyme inhibition assay (fluorogenic peptide substrate Z-Val-Val-Arg-AMC), Cathepsin S; type: biochemical, human and mouse; details: enzyme 1 nM, substrate 20 μM, pH 6.5; read-out: CatS IC50
How it was run: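 Compounds were combined with 1 nM human or mouse enzyme, and substrate then started the reaction. The buffer was potassium phosphate (100 mM, pH 6.5) containing EDTA-Na 5 mM, Triton X-100 0.001% and […] 5 mM.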

Cat L = Cat L (UniProt P07711); test: Cathepsin enzyme inhibition assay (fluorogenic peptide substrate Z-Val-Val-Arg-AMC), Cathepsin L; type: biochemical, human and mouse; details: enzyme 1 nM, substrate 20 μM, pH 6.5; read-out: CatL IC50
How it was run: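 Fluorogenic cleavage of Z-Val-Val-Arg-AMC (20 μM) by 1 nM Cat L was monitored at ex 360/em 465 nm for 20 min, the linear phase. The buffer was 100 mM potassium phosphate pH 6.5 with 5 mM EDTA and DTT. IC50 values were derived by standard methods, in μM.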

SMILES | IC50 (Cathepsin S) [µM] | IC50 (Cat L) [µM]
CN1C[C@H](S(=O)(=O)c2ccccc2Cl)C[C@H]1C(=O)NC1(C#N)CC1 [Example 93, (2S,4R)-4-(2-Chloro-benzenesulfonyl)-1-methyl-pyrrolidine-2-carboxylic acid (1-cyano-cyclopropyl)-amide] | 0.966 | ≥ 25
Cc1cc(N2C[C@H](S(=O)(=O)c3ccccc3Cl)C[C@H]2C(=O)NC2(C#N)CC2)n(C2CCSCC2)n1 [Example 465, (2S,4R)-4-(2-chlorophenylsulfonyl)-N-(1-cyanocyclopropyl)-1-(3-methyl-1-(tetrahydro-2H-thiopyran-4-yl)-1H-pyrazol-5-yl)pyrrolidine-2-carboxamide] | 0.00305 | 2.74
CC(=O)Nc1cccc(-n2nc(C)cc2N2C[C@H](S(=O)(=O)c3ccccc3C(F)(F)F)C[C@@H]2C(=O)NC2(C#N)CC2)c1 [Example 357, (2R,4R)-1-[2-(3-Acetylamino-phenyl)-5-methyl-2H-pyrazol-3-yl]-4-(2-trifluoromethyl-benzenesulfonyl)-pyrrolidine-2-carboxylic acid (1-cyano-cyclopropyl)-amide] | 0.0175 | ≥ 25
C[C@H](Oc1ccc(S(=O)(=O)[C@@H]2C[C@@H](C(=O)NC3(C#N)CC3)N(C(=O)OC(C)(C)C)C2)c(Cl)c1)C(F)(F)F [Example 229, (2S,4R)-4-[2-Chloro-4-((S)-2,2,2-trifluoro-1-methyl-ethoxy)-benzenesulfonyl]-2-(1-cyano-cyclopropylcarbamoyl)-pyrrolidine-1-carboxylic acid tert-butyl ester] | 0.0147 | 23.9
Cc1cc(N2C[C@H](S(C)(=O)=O)C[C@H]2C(=O)NC2(C#N)CC2)n(-c2ccnc(Cl)c2)n1 [Example 463, (2S,4R)-1-[2-(2-Chloro-pyridin-4-yl)-5-methyl-2H-pyrazol-3-yl]-4-methanesulfonyl-pyrrolidine-2-carboxylic acid (1-cyano-cyclopropyl)-amide] | 5.13 | > 25
CC(C)(C)OC(=O)N1C[C@H](S(=O)(=O)c2ccc(N3CCCCC3)cc2Cl)C[C@H]1C(=O)NC1(C#N)CC1 [Example 121, (2S,4R)-4-(2-Chloro-4-piperidin-1-yl-benzenesulfonyl)-2-(1-cyano-cyclopropylcarbamoyl)-pyrrolidine-1-carboxylic acid tert.-butyl ester] | 0.0041 | 23.7
N#CC1(NC(=O)[C@@H]2C[C@@H](S(=O)(=O)c3ccccc3Cl)CN2C(=O)c2n[nH]c3cc(Cl)ccc23)CC1 [Example 410, (2S,4R)-4-(2-Chloro-benzenesulfonyl)-1-(6-chloro-1H-indazole-3-carbonyl)-pyrrolidine-2-carboxylic acid (1-cyano-cyclopropyl)-amide] | 0.0048 | 29.7
CC(=O)N1C[C@H](S(=O)(=O)c2ccc(F)cc2Cl)C[C@H]1C(=O)NC1(C#N)CC1 [Example 134, (2S,4R)-1-Acetyl-4-(2-chloro-4-fluoro-benzenesulfonyl)-pyrrolidine-2-carboxylic acid (1-cyano-cyclopropyl)-amide] | 0.0062 | ≥ 25

Now those with a lower IC50 (Cathepsin S), led by results:

IC50 (Cathepsin S) [µM] | IC50 (Cat L) [µM] | SMILES
0.00295 | ≥ 25 | N#CC1(NC(=O)[C@@H]2C[C@@H](S(=O)(=O)c3ccccc3C(F)(F)F)CN2c2ccc(F)c(Cl)c2)CC1 [Example 394, (2S,4R)-1-(3-Chloro-4-fluoro-phenyl)-4-(2-trifluoromethyl-benzenesulfonyl)-pyrrolidine-2-carboxylic acid (1-cyano-cyclopropyl)-amide]
0.0028 | ≥ 25 | CC(C)(C)OC(=O)N1C[C@H](S(=O)(=O)c2ccc(-n3cccn3)cc2Cl)C[C@H]1C(=O)NC1(C#N)CC1 [Example 120, (2S,4R)-4-(2-Chloro-4-pyrazol-1-yl-benzenesulfonyl)-2-(1-cyano-cyclopropylcarbamoyl)-pyrrolidine-1-carboxylic acid tert-butyl ester]
0.0026 | 31.5 | CCOC(=O)N1C[C@H](S(=O)(=O)c2ccccc2Cl)C[C@H]1C(=O)NC1(C#N)CC1 [Example 96, (2S,4R)-4-(2-Chloro-benzenesulfonyl)-2-(1-cyano-cyclopropylcarbamoyl)-pyrrolidine-1-carboxylic acid ethyl ester]
0.001 | ≥ 25 | N#CC1(NC(=O)[C@@H]2C[C@@H](S(=O)(=O)c3ccc(-n4ccnc4)cc3C(F)(F)F)CN2)CC1 [Example 20, (2S,4R)-4-(4-Imidazol-1-yl-2-trifluoromethyl-benzenesulfonyl)-pyrrolidine-2-carboxylic acid (1-cyano-cyclopropyl)-amide hydrochloride]
0.0009 | 33.9 | CC(=O)N1C[C@H](S(=O)(=O)c2ccc(-n3cccn3)cc2Cl)C[C@H]1C(=O)NC1(C#N)CC1 [Example 131, (2S,4R)-1-Acetyl-4-(2-chloro-4-pyrazol-1-yl-benzenesulfonyl)-pyrrolidine-2-carboxylic acid (1-cyano-cyclopropyl)-amide formiate]
0.000765 | 2.71 | Cc1cc(N2C[C@H](S(=O)(=O)c3ccc(OCC(F)(F)F)cc3Cl)C[C@H]2C(=O)NC2(C#N)CC2)n(C2CCOCC2)n1 [Example 482, (2S,4R)-4-[2-Chloro-4-(2,2,2-trifluoro-ethoxy)-benzenesulfonyl]-1-[5-methyl-2-(tetrahydro-pyran-4-yl)-2H-pyrazol-3-yl]-pyrrolidine-2-carboxylic acid (1-cyano-cyclopropyl)-amide]
0.00046 | 1.39 | N#CC1(NC(=O)[C@@H]2C[C@@H](S(=O)(=O)c3ccccc3Cl)CN2S(=O)(=O)c2ccc3ccccc3c2)CC1 [Example 313, (2S,4R)-4-(2-Chloro-benzenesulfonyl)-1-(naphthalene-2-sulfonyl)-pyrrolidine-2-carboxylic Acid (1-cyano-cyclopropyl)-amide]
0.000455 | 12.3 | N#CC1(NC(=O)[C@@H]2C[C@@H](S(=O)(=O)c3ccc(OCC(F)(F)F)cc3Cl)CN2C(=O)C2(C#N)CC2)CC1 [Example 243, (2S,4R)-4-[2-Chloro-4-(2,2,2-trifluoro-ethoxy)-benzenesulfonyl]-1-(1-cyano-cyclopropanecarbonyl)-pyrrolidine-2-carboxylic acid (1-cyano-cyclopropyl)-amide]
0.00024 | 0.293 | N#CC1(NC(=O)C2C[C@@H](S(=O)(=O)c3ccc(OCC(F)(F)F)cc3Cl)CN2C(=O)C2(c3ccc(Cl)nc3)CC2)CC1 (stereo in doubt) [Example 377, (R)-1-[1-(6-Chloro-pyridin-3-yl)-cyclopropanecarbonyl]-4-[2-chloro-4-(2,2,2-trifluoro-ethoxy)-benzenesulfonyl]-pyrrolidine-2-carboxylic acid (1-cyano-cyclopropyl)-amide]
0.00022 | 1.58 | N#CC1(NC(=O)[C@@H]2C[C@@H](S(=O)(=O)c3ccc(N4CCN(C5CC5)CC4)cc3Cl)CN2C(=O)C2(C(F)(F)F)CC2)CC1 [Example 298, (2S,4R)-4-[2-Chloro-4-(4-cyclopropyl-piperazin-1-yl)-benzenesulfonyl]-1-(1-trifluoromethyl-cyclopropanecarbonyl)-pyrrolidine-2-carboxylic acid (1-cyano-cyclopropyl)-amide]
